Results on 19 compounds are retold here after ChEMBL document CHEMBL3886941 (2016).

As usually defined, the IC50 is the concentration at which inhibition is half-maximal.

The target of this test is Transient receptor potential M8 protein (Canis lupus familiaris, UniProt Q1A7N1). Nature of the test: Functional Assay: The functional activity of compounds of the formula (I) was determined by measuring changes in intracellular calcium concentration using a Ca2+-sensitive fluorescent dye. The changes in fluorescent signal were monitored by a fluorescence plate reader, either a FLIPR (Molecular Devices) or FDSS (Hamamatsu). Increases in intracellular Ca2+ concentration were readily detected upon activation with icilin.At 24 hrs prior to assay, HEK293 cells stably expressing canine TRPM8 were seeded in culture medium in black wall, clear-base poly-D-lysine coated 384-well plates (BD Biosciences, NJ, USA) and grown overnight in 5% CO2 at 37° C. On assay day, growth media was removed and cells were loaded with Calcium 3 Dye (Molecular Devices) for 35 min at 37° C., under 5% CO2 and then for 25 min at room temperature and atmosphere. Subsequently, cells were tested for agonist-induced increases in intracellular Ca2+ levels using FLIPR or FDSS. Cells were challenged with a compound of the Formula (I) (at varying concentrations) and intracellular Ca2+ was measured for 5 min prior to the addition of icilin to all wells to achieve a final concentration that produces approximately an 80% maximal response. EC50 or IC50 values for compounds of the present invention were determined from eight-point dose-response studies. In kind it is cell-based. Background: Calcium assays in cells follow changes in intracellular calcium, usually with a dye or a luminescent sensor.
Chain of Transient receptor potential M8 protein (Q1A7N1 whole entry): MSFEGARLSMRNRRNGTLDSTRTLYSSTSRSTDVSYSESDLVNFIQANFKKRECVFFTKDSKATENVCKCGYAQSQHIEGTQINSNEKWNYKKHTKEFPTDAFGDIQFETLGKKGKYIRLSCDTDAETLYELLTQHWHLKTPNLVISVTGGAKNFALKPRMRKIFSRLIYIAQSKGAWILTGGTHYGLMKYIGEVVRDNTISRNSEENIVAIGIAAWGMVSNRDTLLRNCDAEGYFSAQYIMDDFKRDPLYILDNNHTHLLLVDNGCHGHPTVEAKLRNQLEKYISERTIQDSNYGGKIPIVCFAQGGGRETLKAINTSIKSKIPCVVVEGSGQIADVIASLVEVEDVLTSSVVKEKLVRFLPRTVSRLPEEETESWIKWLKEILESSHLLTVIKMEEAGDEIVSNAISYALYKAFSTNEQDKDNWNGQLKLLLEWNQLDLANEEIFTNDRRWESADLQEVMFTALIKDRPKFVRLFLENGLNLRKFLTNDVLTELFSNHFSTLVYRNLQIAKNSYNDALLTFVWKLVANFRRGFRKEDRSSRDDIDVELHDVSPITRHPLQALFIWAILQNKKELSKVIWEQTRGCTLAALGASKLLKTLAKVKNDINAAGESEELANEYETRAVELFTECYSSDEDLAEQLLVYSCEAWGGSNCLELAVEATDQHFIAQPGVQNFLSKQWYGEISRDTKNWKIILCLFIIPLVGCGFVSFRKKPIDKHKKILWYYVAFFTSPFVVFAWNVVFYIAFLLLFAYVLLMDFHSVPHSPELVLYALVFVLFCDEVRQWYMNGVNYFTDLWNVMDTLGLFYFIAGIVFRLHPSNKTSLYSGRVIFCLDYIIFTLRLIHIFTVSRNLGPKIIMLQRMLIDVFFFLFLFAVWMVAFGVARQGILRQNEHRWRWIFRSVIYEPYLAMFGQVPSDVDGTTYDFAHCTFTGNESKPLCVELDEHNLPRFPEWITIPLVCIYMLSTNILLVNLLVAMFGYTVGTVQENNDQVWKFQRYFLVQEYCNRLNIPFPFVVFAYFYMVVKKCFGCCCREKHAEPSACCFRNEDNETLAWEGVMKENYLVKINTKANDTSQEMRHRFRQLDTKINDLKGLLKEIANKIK
For the compound `CCS(=O)(=O)N(Cc1ccc(F)c(OC)c1)c1sc2ccccc2c1C(C)(C)O`, the concentration for half-maximal inhibition (IC50) worked out at 0.0041 µM.
Under `Cc1c(N(Cc2ccccc2)S(=O)(=O)c2ccc(C(=O)O)cc2)sc2ccccc12` stands 0.004 µM.
The value for `O=[N+]([O-])c1cccc(CN(c2sc3ccccc3c2Br)S(=O)(=O)c2ccccc2)c1` was 0.0104 µM; that for `O=S(=O)(c1ccc(-c2nnn[nH]2)cc1)N(CCC1CC1)c1sc2ccccc2c1Br` was 0.006 µM; that for `O=S(=O)(c1ccc(-c2nnn[nH]2)cc1)N(CCCCC(F)(F)F)c1sc2ccccc2c1Br` was 0.0088 µM.
Turning to `O=S(=O)(c1ccc(-c2nnn[nH]2)cc1)N(CCC(F)(F)F)c1sc2ccccc2c1Br`, the IC50 came to 0.019 µM.
Under `O=S(=O)(CC(F)(F)F)N(Cc1ccc(F)c(C(F)(F)F)c1)c1sc2ccccc2c1CO` stands 0.015 µM; under `O=S(=O)(c1cccs1)N(Cc1ccc(F)c(C(F)(F)F)c1)c1sc2ccccc2c1Cl`, 0.006 µM.
For the compound `Cc1c(N(Cc2cc(Cl)ccc2Cl)S(=O)(=O)c2ccc(C(=O)O)cc2)sc2ccccc12`, the IC50 came out at 0.009 µM.
Under `COc1ccc(CN(c2sc3ccccc3c2C)S(=O)(=O)c2ccc(C(=O)O)cc2)cc1OC` stands 0.006 µM; under `CCCCN(c1sc2ccccc2c1C(C)O)S(=O)(=O)CC` (centres undefined), 0.038 µM; under `Cc1c(N(Cc2ccc3c(c2)OC(F)(F)O3)S(=O)(=O)c2ccc(C(=O)O)cc2)sc2ccccc12`, 0.002 µM.
For the compound `CCCN(c1sc2ccccc2c1C)S(=O)(=O)c1ccc(C(=O)O)cc1`, the IC50 was 0.053 µM.
The value for `O=c1[nH]c(-c2ccc(S(=O)(=O)N(CCCCC(F)(F)F)c3sc4ccccc4c3Br)cc2)no1` was 0.0079 µM; that for `CC(C)(C)OC(=O)N1CCCC1CN(c1sc2ccccc2c1Cl)S(=O)(=O)c1ccccc1` (centres undefined) was 0.205 µM.
Under `COC(=O)CCS(=O)(=O)N(CCC(F)(F)F)c1sc2ccccc2c1C` stands 0.0241 µM; under `O=c1[nH]c(-c2ccc(S(=O)(=O)N(CCC(F)(F)F)c3sc4ccccc4c3Br)cc2)no1`, 0.0181 µM.
For `CCS(=O)(=O)N(Cc1ccc(F)c(F)c1)c1sc2ccccc2c1C(C)=O`, the IC50 is 0.015 µM.
As for `O=S(=O)(c1ccccc1)N(CCc1ccccc1)c1sc2ccccc2c1Cl`, the IC50 worked out at 0.024 µM.
